According to ChEMBL document CHEMBL5241106, “Discovery of a Dual Tubulin and Poly(ADP-Ribose) Polymerase-1 Inhibitor by Structure-Based Pharmacophore Modeling, Virtual Screening, Molecular Docking, and Biological Evaluation” (J Med Chem, 2021):
Calls of active or inactive are those of the source. The rule behind the calls is not given here.

Assays:
Tubulin (Homo sapiens) [1] = target: T1, Tubulin (Homo sapiens) (UniProt P68371+Q9H4B7+P0DPH7+P68366+Q13509+Q71U36+P04350+Q3ZCM7+P07437+P68363+Q9BQE3+Q6PEY2+Q13885+Q9BVA1+Q9BUF5); assay: Inhibition of tubulin polymerization (unknown origin) at 10 uM by turbidimetric analysis; assay type: protein-complex assay
Tubulin (Bos taurus) = Tubulin (Bos taurus) (UniProt Q6B856+Q862L2+Q862F3); assay: Inhibition of [3H]colchicine binding to tubulin to bovine brain tubulin at 5 to 50 uM by competitive binding assay; assay type: tissue-based; settings: dose 5-50 µM
[2] = target: Epidermal growth factor receptor (Homo sapiens, UniProt P00533); assay: Inhibition of EGFR (unknown origin)
[3] = target: Phosphatidylinositol 4,5-bisphosphate 3-kinase catalytic subunit gamma isoform (Homo sapiens, UniProt P48736); assay: Inhibition of PI3KCG (unknown origin)
Tubulin (Homo sapiens) [4] = target: T1, Tubulin (Homo sapiens); assay: Inhibition of tubulin polymerization in human MDA-MB-231 cells assessed as cell shrinkage, increase in nuclear disruption and microtubule dispersion at 0.5 to 2.5 uM incubated for 48 hrs by immunofluorescence assay; assay type: cell-based; settings: dose 0.5-2.5 µM
MDA-MB-231 [5] = assay: Cytotoxicity against human MDA-MB-231 cells assessed as inhibition of cell growth incubated for 72 hrs by MTT assay; assay type: functional, cell-based
HepG2 = assay: Cytotoxicity against human HepG2 cells assessed as inhibition of cell growth incubated for 72 hrs by MTT assay; assay type: functional, cell-based; settings: HepG2, 72 h
MDA-MB-231 [6] = assay: Inhibition of colony formation in human MDA-MB-231 cells measured after 10 days by crystal violet staining based analysis; assay type: functional, cell-based; settings: dose 0.5-12.5 µM, time 10.0 day
MDA-MB-231 [7] = assay: Induction of cell cycle arrest in human MDA-MB-231 cells assessed as proportion of cells at G2/M phase at 0.5 uM incubated for 48 hrs by propidium iodide staining based flow cytometry (reference value: 9.81%); assay type: functional
MCF-10A = assay: Induction of cell cycle arrest in human MCF-10A cells at 0.5 to 12.5 uM incubated for 48 hrs by propidium iodide staining based flow cytometry; assay type: toxicity; settings: dose 0.5-12.5 µM
MDA-MB-231 [8] = assay: Induction of apoptosis in human MDA-MB-231 cells assessed as early apoptotic cells at 0.5 uM incubated for 48 hrs by Annexin V-FITC/PI staining based flow cytometry (reference value: 1.71%); assay type: functional
MDA-MB-231 [9] = assay: Induction of apoptosis in human MDA-MB-231 cells assessed as late apoptotic cells at 0.5 uM incubated for 48 hrs by Annexin V-FITC/PI staining based flow cytometry (reference value: 5.06%); assay type: functional
MDA-MB-231 [10] = assay: Induction of apoptosis in human MDA-MB-231 cells assessed as necrotic cells at 0.5 uM incubated for 48 hrs by Annexin V-FITC/PI staining based flow cytometry (reference value: 1.86%); assay type: functional
MDA-MB-231 [11] = assay: Induction of apoptosis in human MDA-MB-231 cells assessed as viable cells at 2.5 uM incubated for 48 hrs by Annexin V-FITC/PI staining based flow cytometry (reference value: 91.4%); assay type: functional; settings: read-out: Activity
MDA-MB-231 [12] = assay: Induction of apoptosis in human MDA-MB-231 cells assessed as necrotic cells at 2.5 uM incubated for 48 hrs by Annexin V-FITC/PI staining based flow cytometry (reference value: 1.86%); assay type: functional
MDA-MB-231 [13] = assay: Induction of apoptosis in human MDA-MB-231 cells assessed as late apoptotic cells at 12.5 uM incubated for 48 hrs by Annexin V-FITC/PI staining based flow cytometry (reference value: 5.06%); assay type: functional
MDA-MB-231 [14] = assay: Induction of apoptosis in human MDA-MB-231 cells assessed as necrotic cells at 12.5 uM incubated for 48 hrs by Annexin V-FITC/PI staining based flow cytometry (reference value: 1.86%); assay type: functional
HUVEC = assay: […] of angiogenesis in human HUVEC cells assessed as inhibition of capillary tube formation incubated for 8 hrs by inverted microscopic analysis; assay type: functional, cell-based; settings: dose 0.5-12.5 µM
MDA-MB-231 [15] = assay: Anticancer activity against human MDA-MB-231 cells xenografted in BALB/c mouse assessed as reduction in tumor weight at 5 mg/kg, ip administered for every 4 days for 7 times; assay type: functional, organism-based; settings: time 28.0 day
[16] = Toxicity in BALB/c mouse xenografted with human MDA-MB-231 cells assessed as increase in body weight at 1 to 5 mg/kg, ip administered every 4 days for 7 times; assay type: organism-based; settings: in vivo, 672 h, dose 1-5 mg/kg, time 28 day
[17] = Toxicity in BALB/c mouse xenografted with human MDA-MB-231 cells assessed as change in spleen morphological changes at 1 to 5 mg/kg, ip administered every 4 days for 7 times measured at 48 hrs post-last administration by H and E staining based fluorescence microscopic analysis; assay type: organism-based; settings: in vivo, 720 h, dose 1-5 mg/kg, time 30 day
[18] = Toxicity in BALB/c mouse xenografted with human MDA-MB-231 cells assessed as change in lung morphological changes at 1 to 5 mg/kg, ip administered every 4 days for 7 times measured at 48 hrs post-last administration by H and E staining based fluorescence microscopic analysis; assay type: organism-based; settings: in vivo, 720 h, dose 1-5 mg/kg, time 30 day
[19] = Toxicity in BALB/c mouse xenografted with human MDA-MB-231 cells assessed as effect on WBC count at 1 to 5 mg/kg, ip administered every 4 days for 7 times measured at 48 hrs post-last administration; assay type: organism-based; settings: in vivo, 720 h, dose 1-5 mg/kg, time 30 day
[20] = Toxicity in BALB/c mouse xenografted with human MDA-MB-231 cells assessed as effect on platelet count at 1 to 5 mg/kg, ip administered every 4 days for 7 times measured at 48 hrs post-last administration; assay type: organism-based; settings: in vivo, 720 h, dose 1-5 mg/kg, time 30 day
[21] = Toxicity in BALB/c mouse xenografted with human MDA-MB-231 cells assessed as effect on hemoglobin level at 1 to 5 mg/kg, ip administered every 4 days for 7 times measured at 48 hrs post-last administration; assay type: organism-based; settings: in vivo, 720 h, dose 1-5 mg/kg, time 30 day
[22] = Hepatotoxicity in BALB/c mouse xenografted with human MDA-MB-231 cells assessed as effect on blood ALT level at 1 to 5 mg/kg, ip administered every 4 days for 7 times measured at 48 hrs post-last administration; assay type: toxicity, organism-based; settings: in vivo, 720 h, dose 1-5 mg/kg, time 30 day

O=c1[nH]c(/C=C/c2cccc(F)c2)nc2ccccc12
inhibition (Tubulin (Homo sapiens) [1]): 91%
inhibition (Tubulin (Bos taurus)): Active
IC50 [2]: > 10 µM
IC50 [3]: > 10 µM
inhibition (Tubulin (Homo sapiens) [4]): Active
Activity (MDA-MB-231 [5]): Active
IC50 (HepG2): 0.9 µM
inhibition (MDA-MB-231 [6]): Dose-Dependent Effect
Activity (MDA-MB-231 [7]): 23.57%
Activity (MCF-10A): Non-Toxic
Activity (MDA-MB-231 [8]): 2.16%
Activity (MDA-MB-231 [9]): 6.39%
Activity (MDA-MB-231 [10]): 0.88%
viability at 2.5 µM (MDA-MB-231 [11]): 90.2%
Activity (MDA-MB-231 [12]): 1%
Activity (MDA-MB-231 [13]): 8.97%
Activity (MDA-MB-231 [14]): 4.29%
Activity (HUVEC): Dose-Dependent Effect
Activity (MDA-MB-231 [15]): Active
Activity [16]: Toxic
Activity [17]: Non-Toxic
Activity [18]: Non-Toxic
Activity [19]: Non-Toxic
Activity [20]: Non-Toxic
Activity [21]: Non-Toxic
Activity [22]: Non-Toxic
